Entries after “also recorded” stand apart in the source; their conditions may differ. Structures can show the parent of a compound that is named as a salt. Positions of bridges follow the written chain, without caps; N, C: chain ends. Non-standard residues stand in square brackets, D forms with d. Residues, ends and D or L forms follow the SMILES beside them. ξ: configuration not given here. *: point of attachment. X1 = CC[C@H](C)CCCCC(=O)*; dDab = NCC[C@@H](N)C(=O)O; Dab = NCC[C@H](N)C(=O)O; ξDab = NCCC(N)C(=O)O
What was measured:
DspB [1] = assay: Compatibility between antimicrobials or antibiotics and DspB in gel, enzymatic assay (Method 6); format: biochemical, Aggregatibacter actinomycetemcomitans; conditions: for Enzymatic activity of DspB in the presence of the antimicrobial compared with DspB control: P≤0.05, carvacrol and cinnamaldehyde at 0-30 min, chloroxylenol at 5, 10, 20 and 60 min
Procedure: Method 6: Method to Test Compatibility Between Antimicrobials or Antibiotics and DspB in Gel Using Enzymatic Assay
DspB gel containing 200 μg/ml DspB, 16% […] (PF127), 50 mM Phosphate buffer or citrate, 100 mM NaCl, pH 5.9, and 2× concentrated antimicrobial agent/antibiotics in 16% Poloxamer 405, 50 mM Phosphate buffer, 100 mM NaCl, pH 5.9 were mixed in equal proportions. 4×5 μL aliquots were withdrawn at 0, 5, 10, 20, 30, 60, and 120 min for measurement of DspB enzymatic activity. DspB enzymatic activity was measured using β-N-acetylglucosaminidase assay kit from Sigma (product code CS0780) in 96-well microtiter plate following the manufacturer's instructions. The plate was incubated for 30 minutes before terminating the reaction. Data analysis was done in Excel. Student T test (paired) was performed for each time point separately using DspB activity in mixture and in control sample as two set of variables. […]

S. epidermidis biofilm [2] = assay: Biofilm dispersal by DspB gel formulations (Method 5); format: cell-based, Staphylococcus epidermidis; conditions: for Biofilm dispersal of gel containing DspB and antimicrobial compared with gel containing DspB alone: PF127 gel, 20 μg/ml DspB
Procedure: Method 5: Method to Test Biofilm Dispersal by DspB Gel Formulations
S. epidermidis biofilm was grown in 96-well plate and washed three times to remove planktonic cells. Then biofilm was treated using different DspB formulations appropriate treatment duration (10 min-1 h). After treatments, gels were removed and washed 3 times with sterile distilled water to remove excess gel and dispersed biofilm. Remaining biofilms in 96-well plates were stained using Crystal violet and unbound crystal violet was removed by washing the wells with sterile water, the biofilm bound crystal violet was eluted using 33% acetic acid, and the absorbance at 620 nm was taken using a microwell plate reader.
Gels containing DspB and selected concentrations of antimicrobials were formulated in 50 mM phosphate buffer or citrate buffer containing 16% PF127. DspB gel and antimicrobial gel were mixed together and incubated at 37° C. for 2 h. Biofilm dispersal was performed at 0 and 2 h using biofilm dispersal assay (Method 5). Blank gel, DspB gel and antimicrobial gels were included as controls.

E. coli biofilm = assay: Inactivation of biofilm embedded bacteria using liquid buffer formulation (Method 1), E. coli; format: cell-based, Escherichia coli; conditions: antimicrobial plus DspB vs antimicrobial alone
Procedure: (§1) Method 1: Method to Test Inactivation of Biofilm Embedded Bacteria Using Liquid Buffer Formulation
(§2) S. epidermidis or E. coli biofilm were each grown in 96-well plate and washed three times to remove planktonic cells. Then biofilm was treated using 50 mM phosphate or citrate buffer, (no treatment control), buffer solutions containing DspB at 10-200 μg/ml, buffer solution containing antimicrobial alone, and buffer solution DspB plus antimicrobial for varying exposure times (10 min-3 h). After treatments, biofilm embedded bacteria was dispersed, diluted serially and plated on Tryptic soy agar plates. Data was analyzed using ANOVA and Tukey's test.

S. epidermidis biofilm [3] = assay: Compatibility between antimicrobials or antibiotics and DspB, biofilm dispersal assay in buffer (Method 3); format: cell-based, Staphylococcus epidermidis; conditions: for Biofilm dispersal when DspB and antimicrobial were added together: 20 μg/ml DspB, mixture used at 0 and 2 h, 10 min treatment
Procedure: Method 3: Method to Test Compatibility Between Antimicrobials or Antibiotics and DspB Using Biofilm Dispersal Assay
S. epidermidis biofilm was grown in 96-well plate and washed three times using sterile water to remove planktonic cells. Antimicrobials or antibiotics and DspB formulations were prepared in 50 mM phosphate or citrate buffer and stored at 37° C. for 2 h and used for treating biofilm at 0 and 2 h. Biofilm was treated using antimicrobials or antibiotics and DspB formulations for 10 min. After treatments, solutions were removed and washed 3 times to remove dispersed biofilm. Remaining biofilms in 96-well plates were stained using Crystal violet, unbound crystal violet was removed by washing the wells with sterile water, the biofilm bound crystal violet was eluted using 33% acetic acid, and the absorbance at 620 nm was taken using a microwell plate reader. Percent biofilm removal was calculated. Data was analyzed using ANOVA and Tukey's test.

S. epidermidis biofilm [4] = assay: Inactivation of biofilm embedded bacteria using liquid buffer formulation (Method 1), S. epidermidis; format: cell-based, Staphylococcus epidermidis; conditions: for Effect of DspB on activity of the antimicrobial against biofilm embedded S. epidermidis: buffer, antimicrobial plus DspB vs antimicrobial alone, P<0.05; for Biofilm inactivation: buffer formulation, antimicrobial tested with DspB
Procedure: as §1, §2

DspB [5] = assay: Compatibility between antimicrobials or antibiotics and DspB, enzymatic assay in buffer (Method 4); format: biochemical, Aggregatibacter actinomycetemcomitans
Procedure: Method 4: Method to Test Compatibility Between Antimicrobials or Antibiotics and DspB Using Enzymatic Assay
DspB (200 μg/mL) and antimicrobial agent/antibiotic stocks were prepared in respective buffers. 10 mM paranitrophenol (PNP) in 400 mM sodium carbonate, and the buffer (same DspB stock) was used as the standard solution, and negative control, respectively. DspB stock and antimicrobial stock were mixed in equal proportions, and then 4×5 μl samples were taken at defined time points (0, 5, 10, 20, 30, 60, and 120 min) and used to measure the DspB enzyme activity. DspB enzymatic activity was measured using β-N-Acetylglucosaminidase assay kit from Sigma (product code CS0780) in 96-well microtiter plate following the manufacturer's instructions. The plate was incubated for 30 minutes before terminating the reaction. Data analysis was done in Excel. Student T test (paired) was performed for each time point separately using DspB activity in mixture and in control sample as two set of variables.

[6] = gel formulation, 100 μg/ml DspB

## CNC1C(O)[C@@H](O[C@H]2C(N)C[C@H](N)C(O[C@H]3OC([C@@H](C)N)CCC3N)C2O)OC[C@]1(C)O (some centres unmarked) [Gentamicin sulfate]
DspB [1]; [6]
  Synergy or compatibility with DspB, E: enzymatic: E: compatible
S. epidermidis biofilm [2]
  Biofilm dispersal of gel containing DspB and antimicrobial compared with gel containing DspB alone: similar

## CC[C@H](C)CCCCC(=O)N[C@@H](CCN)C(=O)N[C@H](C(=O)NC(CCN)C(=O)N[C@H]1CCNC(=O)[C@H]([C@@H](C)O)NC(=O)[C@H](CCN)NC(=O)[C@H](CCN)NC(=O)[C@H](CC(C)C)NC(=O)[C@@H](Cc2ccccc2)NC(=O)[C@@H](CCN)NC1=O)[C@@H](C)O (some centres unmarked) [Polymyxin B sulfate] (X1-[Dab]T[ξDab][Dab][dDab][dF]L[Dab][Dab]T; lactam 4-C)
DspB [1]; [6]
  Synergy or compatibility with DspB, E: enzymatic: E: compatible
S. epidermidis biofilm [2]
  Biofilm dispersal of gel containing DspB and antimicrobial compared with gel containing DspB alone: similar

## O=C/C=C/c1ccccc1 [Cinnamaldehyde]
E. coli biofilm; P<0.05
  Effect of DspB on activity of the antimicrobial against biofilm embedded E. coli: enhanced
DspB [1]; [6]
  Synergy or compatibility with DspB, E: enzymatic: E: synergy
DspB [1]; wound gel
  Enzymatic activity of DspB in the presence of the antimicrobial compared with DspB control: Higher enzymatic activity
S. epidermidis biofilm [3]; buffer
  Biofilm dispersal when DspB and antimicrobial were added together: ≥ 78%
S. epidermidis biofilm [2]
  Biofilm dispersal of gel containing DspB and antimicrobial compared with gel containing DspB alone: similar
S. epidermidis biofilm [4]
  Effect of DspB on activity of the antimicrobial against biofilm embedded S. epidermidis: enhanced

## CCCCCCCCCCCCCCCC[n+]1ccccc1.[Cl-] [Cetylpyridinium chloride]
DspB [5]
  Synergy or compatibility with DspB, E: enzymatic: E: no synergy
DspB [1]
  Synergy or compatibility with DspB, E: enzymatic: E: compatible

## Benzalkonium chloride
DspB [5]
  Synergy or compatibility with DspB, E: enzymatic: E: no synergy
DspB [1]
  Synergy or compatibility with DspB, E: enzymatic: E: compatible
S. epidermidis biofilm [3]
  Synergy or compatibility with DspB, M: microbiological (biofilm dispersal assay; biofilm inactivation not tested): M: no synergy
S. epidermidis biofilm [2]
  Synergy or compatibility with DspB, M: microbiological (biofilm dispersal assay; biofilm inactivation not tested): M: compatible

## Cc1cc(O)cc(C)c1Cl [Chloroxylenol]
S. epidermidis biofilm [3]; buffer
  Biofilm dispersal when DspB and antimicrobial were added together: ≥ 74%
S. epidermidis biofilm [4]
  Biofilm inactivation: >5 log log CFU

## Cc1ncc([N+](=O)[O-])n1CCO [Metronidazole]
DspB [1]; [6]
  Synergy or compatibility with DspB, E: enzymatic: E: compatible
S. epidermidis biofilm [2]
  Biofilm dispersal of gel containing DspB and antimicrobial compared with gel containing DspB alone: similar

## BisEDT
S. epidermidis biofilm [4]
  Biofilm inactivation: <1 log log CFU

## CC(C)=CCC/C(C)=C\CO [Nerol]
S. epidermidis biofilm [4]
  Biofilm inactivation: <0.5 log log CFU

## C=CC(C)(O)CCC=C(C)CCC=C(C)C (centres unmarked) [Nerolidol]
S. epidermidis biofilm [4]
  Biofilm inactivation: <0.5 log log CFU

## CCCCC(CC)CNC(=N)NC(=N)NCCCCCCNC(=N)NC(=N)NCC(CC)CCCC (centres unmarked) [Alexidine, Alexidine dihydrochloride]
S. epidermidis biofilm [4]
  Biofilm inactivation: >5 log log CFU
  Effect of DspB on activity of the antimicrobial against biofilm embedded S. epidermidis: enhanced

## CC(=O)CC/C=C(\C)CCC=C(C)C [Geranyl acetone]
S. epidermidis biofilm [4]
  Biofilm inactivation: <0.5 log log CFU

## C/C(=C\C(=O)OCCCCCCCCC(=O)O)C[C@@H]1OC[C@H](C[C@@H]2O[C@H]2[C@@H](C)[C@H](C)O)[C@@H](O)[C@H]1O [Mupirocin]
DspB [1]; [6]
  Synergy or compatibility with DspB, E: enzymatic: E: synergy
DspB [1]; wound gel, for up to 2 h, relative to 100 μg/mL DspB control
  DspB activity in the presence of the antimicrobial, enzymatic assay: > 100%

## O=C(O)C=Cc1ccccc1 [Cinnamic acid]
S. epidermidis biofilm [4]
  Biofilm inactivation: <0.5 log log CFU
  Effect of DspB on activity of the antimicrobial against biofilm embedded S. epidermidis: did not show any enhancement

## Cc1ccc(C(C)C)cc1O [Carvacrol]
DspB [5]
  Synergy or compatibility with DspB, E: enzymatic: E: synergy
E. coli biofilm; P<0.05
  Effect of DspB on activity of the antimicrobial against biofilm embedded E. coli: enhanced
DspB [1]
  Synergy or compatibility with DspB, E: enzymatic: E: synergy
DspB [1]; wound gel
  Enzymatic activity of DspB in the presence of the antimicrobial compared with DspB control: Higher enzymatic activity
S. epidermidis biofilm [3]; buffer
  Biofilm dispersal when DspB and antimicrobial were added together: ≥ 73%
S. epidermidis biofilm [2]
  Synergy or compatibility with DspB, M: microbiological (biofilm dispersal assay; biofilm inactivation not tested): M: compatible
  Biofilm dispersal of gel containing DspB and antimicrobial compared with gel containing DspB alone: similar
S. epidermidis biofilm [4]
  Biofilm inactivation: >5 log log CFU
  Effect of DspB on activity of the antimicrobial against biofilm embedded S. epidermidis: enhanced

## Nisin
S. epidermidis biofilm [4]
  Biofilm inactivation: <0.5 log log CFU

## COc1ccc2cc3[n+](cc2c1OC)CCc1cc2c(cc1-3)OCO2 [Berberine hydrochloride]
S. epidermidis biofilm [4]; hydrochloride
  Effect of DspB on activity of the antimicrobial against biofilm embedded S. epidermidis: no synergistic activity
S. epidermidis biofilm [4]; listed as berberine hydrochloride, hydrochloride
  Effect of DspB on activity of the antimicrobial against biofilm embedded S. epidermidis: did not enhance activity; also recorded: antagonism

## CCCCCCCCN=c1ccn(CCCCCCCCCCn2ccc(=NCCCCCCCC)cc2)cc1.Cl.Cl [Octenidine dihydrochloride, octenidine dihydrochloride]
E. coli biofilm; P<0.05, dihydrochloride
  Effect of DspB on activity of the antimicrobial against biofilm embedded E. coli: enhanced activity
E. coli biofilm; P<0.05, listed as ODC, dihydrochloride
  Effect of DspB on activity of the antimicrobial against biofilm embedded E. coli: enhanced
DspB [1]; [6]
  Synergy or compatibility with DspB, E: enzymatic: E: compatible
S. epidermidis biofilm [3]; biofilms treated for 10 min, data not presented
  Biofilm dispersal when 20 μg/ml DspB was mixed with the antimicrobial: no biofilm dispersal was observed
S. epidermidis biofilm [3]; buffer, 100 μg/ml DspB, 0.01% ODC
  Biofilm dispersal when DspB and antimicrobial were added together for 2 h: minimal biofilm dispersal
S. epidermidis biofilm [2]
  Biofilm dispersal of gel containing DspB and antimicrobial compared with gel containing DspB alone: similar
S. epidermidis biofilm [4]
  Biofilm inactivation: >5 log log CFU
S. epidermidis biofilm [4]; dihydrochloride
  Effect of DspB on activity of the antimicrobial against biofilm embedded S. epidermidis: enhanced activity
S. epidermidis biofilm [4]; listed as ODC, dihydrochloride
  Effect of DspB on activity of the antimicrobial against biofilm embedded S. epidermidis: enhanced

## Cc1ccc(C(C)C)c(O)c1 [Thymol]
S. epidermidis biofilm [4]
  Biofilm inactivation: >5 log log CFU
  Effect of DspB on activity of the antimicrobial against biofilm embedded S. epidermidis: enhanced

Reference: patent publication US20250387458A1, “COACTIVE COMBINATIONS OF ANTIMICROBIALS WITH DISPERSINB” (KANE BIOTECH INC., priority 2020, published 2025)
